Key:
Human PKC delta = Human PKC delta (Homo sapiens, UniProt Q05655); experiment: Inhibition of PKC isoforms, in vitro assay; type: biochemical
Text: The methods for these determinations have been described (Grant, et al. 2010, Eur J Pharmacol. 627:16-25).

OCI-Ly3 cells [1] = experiment: IL-6 assay (ELISA of supernatant); type: cell-based; details: OCI-Ly3 cells lacking activating CD79 mutations, 48 hours
Experimental: (§1) TMD8 cells were grown in MEM media supplemented with 10% fetal calf serum (FCS), non-essential vitamin mix, and penicillin-streptomycin antibiotics (pen-strep). HBL1 cells were grown in RPMI-1640 media supplemented with 10% FCS and pen-strep. OCI-Ly3 cells were grown in DMEM media with 15% FCS, non-essential vitamin mix, pen-strep, and 25 mM HEPES buffer. Cells were maintained in suspension culture, fed twice weekly, and split 1:3 approximately every two weeks (TMD8, OCI-Ly3) or weekly (HBL1).
(§2) Cells were harvested via centrifugation and resuspended twice to rinse the media of any IL-6. Cells were then plated in 96 well plates at 5×10^5 cells per well and exposed to increasing concentrations of Compound A, sotrastaurin, or media containing 0.1% DMSO (negative control). For each cell type, experiments were performed in the media used for growth and maintenance. Cells were allowed to grow for 48 hours after plating in the presence of inhibitors. Following compound exposure, cells were pelleted in the 96 well plate, supernatant was removed, and the concentration of IL-6 in the supernatant was determined using R&D Systems Haman IL-6 Quantikine® ELISA Kit (D6050) according to manufacturer's instructions.

TMD8 cells [2] = experiment: IL-6 assay (ELISA of supernatant); type: cell-based; details: for Inhibition of IL-6 production: TMD8 cells, CD79 mutant, 48 hours
Experimental: as §1, §2

HBL1 cells [3] = experiment: IL-6 assay (ELISA of supernatant); type: cell-based; details: CD79 mutant, 48 hours, data not shown
OCI-Ly3 cells [4] = experiment: Cell proliferation and survival assay (MTT); type: cell-based; details: 96 hours
Experimental: (§3) TMD8 cells were grown in MEM media supplemented with 10% fetal calf serum (FCS), non-essential vitamin mix, and penicillin-streptomycin antibiotics (pen-strep). HBL1 cells were grown in RPMI-1640 media supplemented with 10% FCS and pen-strep. OCI-Ly3 cells were grown in DMEM media with 15% FCS, non-essential vitamin mix, pen-strep, and 25 mM HEPES buffer. Cells were maintained in suspension culture, fed twice weekly, and split 1:3 approximately every two weeks (TMD8, OCI-Ly3) or weekly (HBL1). Cells were cultured and maintained as described above, with cells always fed on the day prior to assay. Proliferation and survival of cells was quantified using an MTT assay kit according to manufacturer's instructions (Cell Proliferation Kit 1, Roche Diagnostics, Cat. No. 11 465 007 001). Experiments were performed in the same media used by each cell type for growth and maintenance. Cells (5×10^4) were plated in 96 well plates and allowed to grow for 96 hours in the presence of inhibitors. After the exposure period was completed, MTT reagent was added for 3-4 hours. The MTT solubilization reagent was then added to stop the reaction and cells were incubated overnight at 37° C. The plate read the next day according to the kit instructions.

TMD8 cells [5] = experiment: Cell proliferation and survival assay (MTT); type: cell-based; details: for Inhibition of cell proliferation and survival: TMD8 cells, MTT, 96 hours
Experimental: as §3

HBL1 cells [6] = experiment: Cell proliferation and survival assay (MTT); type: cell-based; details: 96 hours, data not shown
TMD8 cells [7] = experiment: Mouse xenograph model of DLBCL; type: in vivo, SCID mice
Experimental: To test the efficacy of Compound A in vivo, TMD8 cells were grown and subcutaneously injected into SCID mice. Large scale suspension culture of TMD8 cells was performed in T250 flasks, where cells were expanded weekly. Animals (n=24) were inoculated with 10×10^6 cells (10×10^6 cells in 100 μL volume of 50% Matrigel®) subcutaneously in the animal's right flank.

circulating lymphocytes = experiment: Peripheral lymphocyte levels, multiple ascending dose study; type: in vivo, human; details: healthy humans, 50, 100, 150, 200 mg BID, 14 days
[8] = 120 mg/kg BID, SCID mice with TMD8 tumors

Sequence of Human PKC delta (Q05655 whole entry, canonical isoform): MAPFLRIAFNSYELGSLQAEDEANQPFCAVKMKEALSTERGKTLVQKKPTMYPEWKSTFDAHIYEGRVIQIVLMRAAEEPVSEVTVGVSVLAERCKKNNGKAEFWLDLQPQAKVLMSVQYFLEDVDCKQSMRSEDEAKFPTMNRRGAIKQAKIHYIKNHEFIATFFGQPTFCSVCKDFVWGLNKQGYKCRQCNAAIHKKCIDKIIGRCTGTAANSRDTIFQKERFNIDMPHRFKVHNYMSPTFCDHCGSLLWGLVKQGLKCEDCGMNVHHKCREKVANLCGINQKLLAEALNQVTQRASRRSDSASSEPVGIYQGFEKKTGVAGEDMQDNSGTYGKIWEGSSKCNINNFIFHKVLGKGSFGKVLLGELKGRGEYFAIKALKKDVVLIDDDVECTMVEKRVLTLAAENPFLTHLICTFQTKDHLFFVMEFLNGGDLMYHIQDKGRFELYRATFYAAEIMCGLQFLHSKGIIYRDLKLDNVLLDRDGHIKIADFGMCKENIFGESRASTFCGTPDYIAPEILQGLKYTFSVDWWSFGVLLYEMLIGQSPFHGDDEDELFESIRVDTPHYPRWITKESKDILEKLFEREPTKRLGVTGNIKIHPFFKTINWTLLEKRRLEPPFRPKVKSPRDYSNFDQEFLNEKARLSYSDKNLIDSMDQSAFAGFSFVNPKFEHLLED

| Mean weight of vehicle treated group greater than Compound A treated animals (TMD8 cells [7]; 120 mg/kg BID) | Structure (SMILES) | Inhibition of PKC delta (in words) (Human PKC delta) | Inhibition of IL-6 production (OCI-Ly3 cells [1]) | Potency in IL-6 assay compared to sotrastaurin (TMD8 cells [2]) | Inhibition of IL-6 production (TMD8 cells [2]) | Inhibition of IL-6 production (HBL1 cells [3]) | Inhibition of cell proliferation and survival (OCI-Ly3 cells [4]) | Potency in cell proliferation assay compared to sotrastaurin (TMD8 cells [5]) | Inhibition of cell proliferation and survival (TMD8 cells [5]) | Inhibition of cell proliferation and survival (HBL1 cells [6]) | Body weight change from day 24-28 (TMD8 cells [7]; [8]) | Body weight, first 10 days of treatment (TMD8 cells [7]; [8]) | Tumor growth (in words) (TMD8 cells [7]; study days 20 to 28, 120 mg/kg BID) | Number of circulating lymphocytes (circulating lymphocytes) |
| --- | --- | --- | --- | --- | --- | --- | --- | --- | --- | --- | --- | --- | --- | --- |
| 1.8 g | Cc1ncc(F)c(Nc2n[nH]c3c2CN(C(=O)N2C[C@@H](C)N(CC4CCOCC4)C[C@@H]2C)C3(C)C)n1 [Compound A, 5-{[(2S,5R)-2,5-dimethyl-4-(tetrahydro-2H-pyran-4-ylmethyl)piperazin-1-yl]carbonyl}-N-(5-fluoro-2-methylpyrimidin-4-yl)-6,6-dimethyl-1,4,5,6-tetrahydropyrrolo[3,4-c]pyrazol-3-amine] | does not inhibit PKC delta to any appreciable degree | not affected | slightly more potent | dose-dependent inhibition | dose-dependent inhibition | not affected by either compound except at the highest doses tested | modestly more potent | dose-dependent inhibition | dose-dependent inhibition | no increase in body weight | steady, slow increase | no appreciable amounts of tumor growth | dose dependent increase |
| – | CN1CCN(c2nc(C3=C(c4c[nH]c5ccccc45)C(=O)NC3=O)c3ccccc3n2)CC1 [sotrastaurin, reference compound] | – | not affected | – | dose dependent inhibition | – | not affected by either compound except at the highest doses tested | – | dose dependent inhibition | – | – | – | – | – |
